Test results from the METLIN SMRT retention time set (Domingo-Almenara et al. 2019).

Test: gradient 5% acetonitrile 3 min, to 50% in 2 min, to 85% in 15 min, held 3 min, 100 µL/min
Settings: column: Zorbax Extend-C18 2.1 x 50 mm; eluents: water / acetonitrile, 0.1% formic acid
In short: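 In both positive and negative ionization mode, a quadrupole time-of-flight mass spectrometer coupled to HPLC analyzed pure standards run in mixtures of ~100 molecules. The Zorbax Extend-C18 column (2.1 × 50 mm, 1.8 μm) was operated at 100 μL/min with water and acetonitrile, each containing 0.1% formic acid. The dead volume was 40 μL and the dwell volume 900 μL. Retention time came from adduct peaks that were computationally picked and individually inspected by hand.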

| RP-LC retention time | SMILES |
| --- | --- |
| 778 s | COc1cc(NC(=O)N2CCCC(C)(C(=O)NCc3ccc(F)cc3)C2)cc(OC)c1OC (centres undefined) |
| 848 s | N#Cc1ccc(C(=O)Nc2cnn(-c3ncc(N4CCCCC4)cn3)c2)cc1 |
| 1070 s | CCOc1ccc(-c2nc(-c3ccc4nnn(C)c4c3)no2)cc1 |
| 538 s | CCNc1cc(N2CCC(CCC(=O)NCCC(C)C)CC2)ncn1 |
| 750 s | Cn1cc(C=C2C(=O)Nc3cccnc32)c2ccccc21 |
| 861 s | CC(C)(C)C(=O)N1CCCC(C(=O)Nc2sc3c(c2C(N)=O)CCCC3)C1 (centres undefined) |
| 816 s | CN(CCc1noc(-c2ccc(C(=O)N3CCCC3)cc2)n1)C(=O)Cc1ccc(Cl)cc1 |
| 1040 s | Cc1ccc(NC(=O)Nc2nc3ccccc3s2)cc1NC(=O)Nc1nc2ccccc2s1 |
| 760 s | Cc1cccc(NC(=O)CN2C(=O)CCS(=O)(=O)c3ccccc32)c1C |
| 929 s | CCCC(=O)Nc1ccc(-n2cnc(C(=O)N3CCN(c4cccc(C)c4C)CC3)c2)nc1 |
| 741 s | O=c1cccnn1CCCNS(=O)(=O)c1ccc(F)c(C(F)(F)F)c1 |
| 847 s | CCC(C)NC(=O)c1cccc(C)c1 (centres undefined) |
| 571 s | Cc1ccc2c(c1)NC(=O)c1cc(NS(=O)(=O)c3ccccc3F)ccc1O2 |
| 931 s | Cc1ccc(-n2nnnc2CNC(=O)COc2ccc(Cl)cc2Cl)cc1C |
| 600 s | Cc1nccn1Cc1noc(-c2ccccc2)n1 |
| 669 s | Cc1ccc(NC(=O)N2CCN(c3cc(C)nc(N4CCOCC4)n3)CC2)c(Cl)c1 |
| 953 s | CCCn1c(=O)c(N2CCC(NC(=O)NC3CCCCC3)CC2)nc2ccccc21 |
| 717 s | O=C(NCC1CCOCC1)c1nccc2ccccc12 |
| 816 s | COc1ccccc1CCC(=O)N1C[C@@H]2C[C@H](NC(=O)c3ccccc3)[C@H]1C2 |
| 967 s | CCCc1noc(-c2ccc(-n3ncc(C(=O)N4CCSCC4)c3C)nc2)n1 |
| 603 s | COc1cccc(N2C(=O)Nc3ccccc3C2(O)C(=O)N2CCN(c3ccccn3)CC2)c1 (centres undefined) |
| 718 s | CN1C(=O)CC[C@]2(C(=O)NCc3ccc(F)c(Cl)c3)CCCC[C@@H]12 |

| RP-LC retention time | SMILES |
| --- | --- |
| 834 s | COc1ccccc1OCCNC(=O)c1ccc2c(=O)n(-c3ccccc3)c(N3CCCC3)nc2c1 |
| 610 s | CCN1CCN(Cc2nc(-c3ccc(N4CCCC(C)C4)nc3)no2)CC1 (centres undefined) |
| 852 s | COc1ccc(NC(=O)N2CCN(c3cc(-n4nc(C)cc4C)ncn3)CC2)cc1Cl |
| 605 s | CCOC(=O)C1=C(CN2CCC(N3CCCCC3)CC2)NC(=O)NC1c1ccc(OC(C)C)cc1 (centres undefined) |
| 704 s | CCCC(=O)Nc1ccc2c(c1)CN(C(=O)c1ccc(F)cc1F)C(C(=O)N(C)C)C2 (centres undefined) |
| 942 s | CCOC(=O)c1nc(Nc2ccccc2OCC)c2ccccc2n1 |
| 657 s | Cn1cnc2c(NCc3ccccc3)nc(NCCO)nc21 |
| 826 s | CCOCCCNC(=O)C1CCCN(c2ccc(=O)n(-c3ccc(C)c(Cl)c3)n2)C1 (centres undefined) |
| 827 s | COc1cccc(CNC(=O)c2nnc(-c3ccc(S(=O)(=O)N(C)C)cc3)o2)c1 |
| 646 s | O=C(Nc1ncn[nH]1)c1ccccc1 |
| 812 s | CCOC(=O)c1ccc(NC(=O)CN2N=NC3C(=O)N(c4ccc(F)cc4)C(=O)C32)cc1 (centres undefined) |
| 1040 s | O=C(Nc1cnc(-c2ccc(Cl)cc2)nc1)c1cccs1 |
| 698 s | Cc1cc(C)c2c(N3CCCCC3)nc(C(=O)N3CCC(C)CC3)nc2n1 |
| 584 s | COc1ccc(CN2CCC[C@H]2c2nc(C3CCOCC3)n[nH]2)c(Cl)c1OC |
| 1000 s | CCc1ccc(-c2noc(CN3C(=O)COc4ccc(S(=O)(=O)CC)cc43)n2)cc1 |
| 648 s | COc1cccc(S(=O)(=O)N2CCN(C3=CC4=NC(C)CN4C=N3)CC2)c1 (centres undefined) |
| 876 s | CC(=O)c1ccc(S(=O)(=O)N2CCCC(C)(C(=O)NCc3ccc(F)cc3)C2)cc1 (centres undefined) |
| 618 s | O=C(NCC1CCCO1)C1CCN(c2ncnc3c2oc2ccccc23)CC1 (centres undefined) |
| 591 s | Cc1cc(C(N)=O)c2cc(C(C)C)ccc2n1 |
| 646 s | COc1cccc(CNC(=O)Cn2cnc3nc(N4CCC(C(=O)NC5CC5)CC4)sc3c2=O)c1 |
| 1090 s | Cc1oc2ccn(Cc3ccccc3F)c(=O)c2c1C(=O)NCc1ccc(F)cc1 |
| 963 s | COC(=O)c1c(NC(=O)C2COc3ccccc3O2)sc2c1CCN(C(=O)OC)C2 (centres undefined) |

| RP-LC retention time | SMILES |
| --- | --- |
| 892 s | CCOC(=O)c1cc(S(=O)(=O)N2CCCC2C(=O)N(CC)c2ccc(OC)cc2)cn1C (centres undefined) |
| 862 s | CCCNC(=O)Cn1c(=O)c2cnc(-c3ccccc3)nc2n(CC)c1=O |
| 715 s | Cc1ccc2nc(N3CCN(C)CC3)c(-c3noc(-c4ccccc4)n3)cc2c1 |
| 827 s | CCn1nc2ccc(S(=O)(=O)N3CCC(C)CC3)cn2c1=O |
| 785 s | CCc1cccc(NC(=O)C2CC(=O)N(c3ccc4oc(C)nc4c3)C2)c1 (centres undefined) |
| 814 s | COCCN1C(=O)CCc2cc(NC(=O)CC3CCCCC3)ccc21 |
| 644 s | CCC(=O)Nc1ccc(CCc2nc3ccc(C(=O)NCc4ccc5c(c4)OCO5)cc3[nH]2)cc1 |
| 570 s | O=C(O)CCN1C(=O)C2C3C=CC(C3)C2C1=O (centres undefined) |
| 608 s | Cc1ccccc1NC(=O)CN1CCc2[nH]c3c(C)cc(F)cc3c(=O)c2C1 |
| 839 s | O=C(Cn1c(=O)c2cc(-c3cccs3)nn2c2ncccc21)Nc1ccccc1F |
| 674 s | Cc1nc2c(C(=O)NCCN(C)C)cnn2c(C)c1Cc1ccccc1Cl |
| 780 s | Cc1nc2nc(-c3ccc(Cl)cc3)nn2c(C)c1CC(=O)N1CCCC1 |
| 752 s | COc1ccc(-c2csc(NC(=O)/C=C/C(=O)O)n2)cc1 |
| 631 s | CN(CCCNC(=O)Cn1c(=O)c2cccn2c2ccccc21)Cc1ccccc1 |
| 867 s | Cc1cc2nn(CC(=O)N3CCC(C)CC3)c(=O)n2c(-c2ccc(Cl)cc2)n1 |
| 1120 s | CCCN1CCN(c2ncc3c(n2)CCN(Cc2cccc(OC)c2)C3)CC1 |
| 973 s | Cc1sc2ccn(Cc3ccc(F)cc3)c(=O)c2c1C(=O)NC1CCCCC1 |
| 714 s | CCC(=O)Nc1ccc(CCc2nc3ccc(C(=O)NC(C)CCc4ccccc4)cc3[nH]2)cc1 (centres undefined) |
| 1100 s | CCN1C(=O)c2cc(S(=O)(=O)Nc3cc(C)ccc3C)ccc2Oc2cccnc21 |
| 692 s | Cc1nnc(SCCC(=O)Nc2ccc(F)cc2)s1 |
| 1100 s | Cc1nc2cc(-c3noc(-c4c(F)cccc4Cl)n3)ccc2o1 |
| 736 s | COC(=O)c1cccc(NC(=O)N2CCC3(CC2)NC(=O)c2ccccc2O3)c1 |

| RP-LC retention time | SMILES |
| --- | --- |
| 578 s | CCN(CCCNC(=O)Cn1ccc2c(=O)n(C)c(=O)n(C)c21)c1ccccc1 |
| 900 s | O=c1ccc(-c2ccccc2)nn1CCc1nc(-c2ccc3c(c2)OCO3)no1 |
| 804 s | COCCN1C(=O)CCC2(CNC(=O)c3sccc3C)CCCC=C12 (centres undefined) |
| 813 s | Cc1nsc2ncc(C(=O)N3CCOCC3)c(N3CCC(C(=O)Nc4ccccc4Br)CC3)c12 |
| 639 s | Cn1cccc1C(=O)NC1CCCN(c2cc(N3CCCC3)ncn2)C1 (centres undefined) |
| 969 s | CCCn1c(=O)sc2cc(S(=O)(=O)N3CCC(C(=O)NCc4ccc(C)cc4)CC3)ccc21 |
| 721 s | Cc1cccc(-c2ncccc2CNS(=O)(=O)c2cccc(C)c2)c1 |
| 1220 s | Cc1ccc(-c2nnc(Cc3nc(-c4ccc(Br)cc4)no3)o2)cc1F |
| 762 s | CC(C)c1ccc(NC(=O)Cn2cnc3nc4c(cc3c2=O)CCCC4)cc1 |
| 796 s | Cc1cc2nc(C(F)(F)F)c(=O)n(C(C)C(=O)N3CCN(c4ccccn4)CC3)c2cc1C (centres undefined) |
| 839 s | CCc1onc(C)c1C1CCCN1C(=O)CCc1ccc(OC)cc1 (centres undefined) |
| 812 s | O=C(Cc1cccc(F)c1)N1CCC(n2nc(-c3ccsc3)ccc2=O)CC1 |
| 623 s | Cc1cnc(C(=O)N2CCCCCNC(=O)[C@@H]3CCC[C@@H]32)cn1 |
| 608 s | CC(C)c1nnc(-c2ccc(S(=O)(=O)N3CCN(C(C)C)CC3)o2)o1 |
| 678 s | CCOC(=O)C1CCN(C(=O)c2ccc3c(c2)N(CC(=O)N2CCCC2)C(=O)CO3)CC1 |
| 634 s | Cc1ccccc1C(=O)Nc1c(-c2ccccc2)nc2ccccn12 |
| 765 s | CCC(=O)NCCc1csc(C2CCN(C(=O)CC3CCCCC3)CC2)n1 |
| 716 s | O=[N+]([O-])c1cccnc1Oc1cccnc1 |
| 1060 s | Cc1ccc(CCNC(=O)C2CCCN(S(=O)(=O)c3cc(-c4noc(C)n4)cs3)C2)cc1 (centres undefined) |
| 1020 s | N#CC(c1ccc(Cl)cc1)c1c(Cl)cc(N2NCC(=O)NC2=O)cc1Cl (centres undefined) |

| SMILES | RP-LC retention time |
| --- | --- |
| O=C(CN1CC=C(c2cnn(-c3ccc(F)cc3)c2)CC1)NCc1ccco1 | 658 s |
| CCCCNC1(c2cc3ccccc3s2)CCCCC1 | 831 s |
| CCCC(=O)N1CCC2(C1)C(=O)Nc1ccc(OC)cc12 (centres undefined) | 652 s |
